From article PMC9959553, “Promising Antifungal Molecules against Mucormycosis Agents Identified from Pandemic Response Box®: In Vitro and In Silico Analyses” (Journal of Fungi, 2023)
Converted amounts (≈) assume the structure as drawn. Like-named read-outs stand apart in the source and are kept apart here.

Assays:
R. oryzae [1] = test: Antifungal susceptibility testing (broth microdilution, MIC and MFC); format: cell-based, Rhizopus oryzae; settings: for MIC50 / MFC: Rhizopus arrhizus, 48 h; for MIC50: lowest concentration that inhibits 50% of fungal growth; for MFC: subculture in drug-free medium
Experimental: (§1) The susceptibility of the Rhizopus species to MMV396785 (alexidine), MMV1580844, MMV642550 and MMV019724 was determined using the broth microdilution method, according to EUCAST protocols, with modifications. Posaconazole and amphotericin B were also used as reference antifungal drugs because they are commonly used for the treatment of mucormycosis. […] A standardized suspension of conidia (2 × 10^5/mL) was added to the wells and incubated for 48 h at 37 °C, in a 5% CO2 atmosphere. Fungal growth was analyzed via spectrophotometry readings at 600 nm and cell viability was assessed using the XTT reduction assay. Minimum inhibitory concentration (MIC) of each compound was defined as the lowest concentration that inhibits 50% of fungal growth, because these fungi are highly resistant to antifungal drugs and a reduction in half of their growth is relevant. […] MFC values were defined as the lowest drug concentration able to arrest fungal growth.

R. microsporus = test: as above; format: cell-based, Rhizopus microsporus var. microsporus; settings: for MIC50 / MFC: Rhizopus microsporus, 48 h; for MIC50: lowest concentration that inhibits 50% of fungal growth; for MFC: subculture in drug-free medium
Experimental: as §1

R. stolonifer = test: as above; format: cell-based, Rhizopus stolonifer; settings: for MIC50 / MFC: Rhizopus stolonifer, 48 h; for MIC50: lowest concentration that inhibits 50% of fungal growth; for MFC: subculture in drug-free medium
Experimental: as §1

[2] = tested on: R. oryzae, R. microsporus and R. stolonifer; test: Antifungal susceptibility testing, values stated over the three species; format: cell-based; settings: over the three Rhizopus species
Experimental: as §1

R. oryzae UCP1295 [3] = test: Antifungal drug synergy assay, checkerboard method (FICI); format: cell-based, Rhizopus oryzae; settings: Rhizopus arrhizus, UCP1295, 48 h; drug alone; read-out: MIC50 Alone
Experimental: (§2) Synergistic interactions were evaluated using the checkerboard method according to EUCAST guidelines (EUCAST 2008). R. oryzae conidia (2 × 10^5/mL) were grown in 96-well plates containing supplemented RPMI in the presence of the following selected compounds: […] An inhibition of at least 50% was defined as the cut-off for minimum inhibitory concentration (MIC). Interactions were determined by the fractional inhibitory concentration index (FICI), which was calculated using the following formula: (MIC combined/MIC drug A alone) + (MIC combined/MIC drug B alone). […] The Bliss independence model calculation was performed according to […] colleagues and Zhao and colleagues. The following formula was used to assess drug interaction: […] The results were classified as follows: synergistic effect when Eobs > Eexp; indifference when Eobs = Eexp; antagonistic effect when Eobs < Eexp.

R. oryzae [4] = test: Antifungal drug synergy assay, Bliss independence model; format: cell-based, Rhizopus oryzae; parameters: key to Interaction: S, synergistic interaction; A, antagonist interaction; Efficacy of Combined Drugs, E obs / Efficacy of Combined Drugs, E exp: concentration or dose not given beside the values; settings: for Efficacy of Drugs Alone (% of Inhibition), MIC50: at MIC50; for Efficacy of Drugs Alone (% of Inhibition), ½ MIC50: at ½ MIC50; for ΔE: Eobs minus Eexp; for Efficacy of Combined Drugs, E exp: expected by Bliss calculation
Experimental: as §2

[5] = cited from earlier work
R. oryzae UCP1295 [6] = test: Screening of the Pandemic Response Box library at 5 µM; format: cell-based, Rhizopus oryzae; settings: for inhibition at 5 µM: Rhizopus arrhizus, UCP1295, 48 h
In short: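 Growth inhibition was read at 600 nm after conidia (2 × 10^5/mL) grew 48 h at 37 °C, 5% CO2, with 5 μM compound in glucose-supplemented (2%), MOPS-buffered RPMI (pH 7.2). Controls were posaconazole at 5 μM and 1% DMSO. The selection cut-off was at least 60% inhibition.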

[7] = tested on: R. microsporus preformed biofilm; test: Preformed biofilm assay; format: cell-based, Rhizopus microsporus; settings: R. microsporus, based on biofilm viability parameter
Experimental: (§3) For the preformed biofilm assay, cells were cultured as described above in the absence of the compounds. […] An additional incubation of 24 h at 37 °C was performed to evaluate the anti-biofilm activity. Evaluation of both biofilm formation and preformed biofilms was performed using three parameters as previously described. Crystal violet, safranin and XTT assays were used to analyze the overall biomass, extracellular matrix and metabolic activity, respectively.

[8] = tested on: R. stolonifer preformed biofilm; test: Preformed biofilm assay; format: cell-based, Rhizopus stolonifer; settings: R. stolonifer, based on biofilm viability parameter
Experimental: as §3

R. oryzae cells = test: Analysis of fungal cell alterations with fluorescent staining; format: cell-based, Rhizopus oryzae; settings: ½× MIC50, 48 h
Experimental: Alterations of R. oryzae cells caused by alexidine, MMV1580844, MMV642550 and MMV019724 were analyzed using fluorescent staining. Chitin, nucleic acid, oxidative stress, mitochondrial membrane potential and neutral lipid content were evaluated using calcofluor white (Sigma-Aldrich, MO, USA), Sytox Blue (ThermoFisher, Waltham, MA, USA), 2′,7′–dichlorofluorescein diacetate (DCFH-DA) (Sigma-Aldrich, MO, USA), JC-1 probe (ThermoFisher, Waltham, MA, USA) and Nile Red (Sigma-Aldrich, MO, USA), respectively. […] Cells were stained with 25 μg/mL of calcofluor white, 20 μM of Sytox Blue, 50 μg/mL of DCFH-DA, 10 μg/mL of JC-1 or 20 μg/mL of Nile Red, all of them for 1 h at 37 °C in the dark. Samples were washed three times to remove residual dye and suspended in PBS. Fluorescence intensity was measured using the SpectraMax 340 microplate reader (Molecular Devices, San José, CA, USA) under the following conditions: calcofluor white at 350 nm (excitation) and 432 nm (emission); Sytox Blue at 444 nm (excitation) and 480 nm (emission); DCFH-DA at 492 nm (excitation) and 517 nm (emission); JC-1 at 475 nm (excitation) and 529 nm (green fluorescence) or 590 nm (red fluorescence) for the calculation of the red/green fluorescence intensity; and Nile Red at 550 nm (excitation) and 635 nm (emission).

[9] = Cytotoxicity assay (neutral red); format: cell-based, murine; settings: mouse, RAW 264.7 macrophage cells
Experimental: (§4) Cytotoxicity of alexidine, MMV1580844, MMV642550 and MMV019724 was performed using three cell lineages: RAW 264.7, a murine macrophage culture; A549, adenocarcinomic human alveolar basal epithelial cells; and HaCaT, a spontaneously transformed aneuploid immortal keratinocyte cell line from adult human skin. Cells were grown in DMEM (Dulbecco’s Modified Eagle’s Medium, Sigma-Aldrich, MO, USA), supplemented with 10% fetal bovine serum and incubated for 48 h at 37 °C with 5% CO2 in the presence of serially diluted concentrations (0.3–50 μM) of each compound. Cell viability was measured using the neutral red (NR) assay and quantified using a spectrophotometer at 595 nm (SpectraMax® i3x, Molecular Devices®, San José, CA, USA).

[10] = Cytotoxicity assay (neutral red); format: cell-based; settings: human
Experimental: as §4

C[C@@H]1[C@H](O)[C@@H](C)/C=C/C=C/C=C/C=C/C=C/C=C/C=C/[C@H](O[C@@H]2O[C@H](C)[C@@H](O)[C@H](N)[C@@H]2O)C[C@@H]2O[C@](O)(C[C@@H](O)C[C@@H](O)[C@H](O)CC[C@@H](O)C[C@@H](O)CC(=O)O[C@H]1C)C[C@H](O)[C@H]2C(=O)O [Amphotericin B, reference compound]
MIC50 (R. oryzae [1]): > 20 µM | MFC (R. oryzae [1]): > 20 µM | MIC50 (R. microsporus): > 20 µM | MFC (R. microsporus): > 20 µM | MIC50 (R. stolonifer): > 20 µM | MFC (R. stolonifer): > 20 µM | MFC [2]: > 20 µM | MIC [2]: > 20 µM | MIC (R. oryzae UCP1295 [3]): 40 µM | Efficacy of Drugs Alone (% of Inhibition), MIC50 (R. oryzae [4]): 79.6 % of Inhibition | Efficacy of Drugs Alone (% of Inhibition), ½ MIC50 (R. oryzae [4]): 21.4 % of Inhibition | oral bioavailability [5]: negligible

Oc1cccc(C(Nc2nccs2)c2ccc3cccnc3c2O)c1 (stereo not shown) [MMV642550]
inhibition at 5 µM (R. oryzae UCP1295 [6]; Table S1, mean of the four values, read-out: % of growth inhibition, Mean): 59.8% | inhibition at 5 µM (R. oryzae UCP1295 [6]; optical density 600 nm, read-out: Growth Inhibition): 60% | Viability Inhibition (XTT) (R. oryzae UCP1295 [6]; XTT reduction): 59% | Selectivity Index (SI), Planktonic Cell (R. oryzae [1]; R. oryzae, from CC50 and MIC50 of planktonic cells): >20 | MIC50 (R. oryzae [1]): 2.5 µM (≈ 0.874 µg/mL) | MFC (R. oryzae [1]): > 20 µM | Selectivity Index (SI), Planktonic Cell (R. microsporus; R. microsporus, from CC50 and MIC50 of planktonic cells): >10 | MIC50 (R. microsporus): 5 µM (≈ 1.75 µg/mL) | MFC (R. microsporus): > 20 µM | Selectivity Index (SI), Planktonic Cell (R. stolonifer; R. stolonifer, from CC50 and MIC50 of planktonic cells): >20 | MIC50 (R. stolonifer): 2.5 µM (≈ 0.874 µg/mL) | MFC (R. stolonifer): > 20 µM | MIC [2]: 2.5 to 5 µM (≈ 0.874 to 1.75 µg/mL) | Selectivity Index (SI), Preformed Biofilm [7]: >5 | Selectivity Index (SI), Preformed Biofilm [8]: >10 | chitin content (calcofluor white) (R. oryzae cells): decreased | neutral lipids (Nile Red) (R. oryzae cells): decreased | MIC (R. oryzae UCP1295 [3]): 2.5 µM | Efficacy of Drugs Alone (% of Inhibition), MIC50 (R. oryzae [4]): 62.9 % of Inhibition | Efficacy of Drugs Alone (% of Inhibition), ½ MIC50 (R. oryzae [4]): 42.3 % of Inhibition | Efficacy of Combined Drugs, E obs (R. oryzae [4]; combined with Amphotericin B): 78.1% | Interaction (R. oryzae [4]; combined with Amphotericin B): S | ΔE (R. oryzae [4]; combined with Amphotericin B): 23.5% | Efficacy of Combined Drugs, E exp (R. oryzae [4]; combined with Amphotericin B): 54.6% | Efficacy of Combined Drugs, E obs (R. oryzae [4]; combined with Posaconazole): 60.0% | Interaction (R. oryzae [4]; combined with Posaconazole): A | ΔE (R. oryzae [4]; combined with Posaconazole): −26.5% | Efficacy of Combined Drugs, E exp (R. oryzae [4]; combined with Posaconazole): 86.5% | CC50 at 48 h [9]: > 50 µM | CC50 at 48 h ([10]; A549 alveolar basal epithelial cells, A549, 48 h): > 50 µM | CC50 at 48 h ([10]; HaCaT keratinocyte cells): > 50 µM
